# Data: US20240057598A1, “USE OF 2-AMINO-3-METHYLHEXANOIC ACID AS PLANT IMMUNITY INDUCER” (NANJING AGRICULTURAL UNIVERSITY, priority 2020, published 2024)
# How the values were obtained:
# Achromobacter butyri = conditions: cited from earlier work
# Pseudomonas aeruginosa = conditions: cited from earlier work
# wheat = test: Induced resistance of wheat to high temperature stress; assay type: in vivo; conditions: for Dry weight of overground part / Fresh weight of overground part / Heat injury index: 45° C. 9 h, 7 days recovery
# Protocol: […] A blank control was additionally set, and 0.02% Tween 20 was added as a surfactant. 4 groups of repetitions were set for each concentration, and a normal temperature blank control was set at the same time. Ryegrass seeds were weighed according to 0.8 g per pot, sowed in a pot with a diameter of 8.5 cm, and planted in a greenhouse at a temperature of 25° C., a humidity of 60%-70%, and a light intensity of 200 μmolm^−2s^−1 (12 h light/12 h dark). On the 8th day of the seedling stage, the ryegrass was sprayed with the 2-amino-3-methylhexanoic acid solutions on the leaves twice in 24 h. 24 h after the second treatment, the plants were transferred to a light incubator at a temperature of 45° C. for conducting high temperature stress treatment for 12 h, and then the plants were taken out and transferred to a greenhouse at a temperature of 25° C. for 7 days of recovery. The injured conditions of the plants were observed and counted, and the heat injury grade was calculated. […] After the counting, the fresh weight of the aboveground part of the plant was weighed, and then the aboveground part was baked in an 85° C. oven for 48 h to determine the dry weight.
# Wheat seeds were weighed according to 1.5 g per pot, and planted by a method and under conditions the same as those of ryegrass. When the wheat grew for two weeks in the seedling stage, the experiment was conducted. High temperature stress was conducted for 9 h, and the treatment method and subsequent statistical indexes were the same as those of the ryegrass mentioned above.
# [1] = tested on: tomato spotted wilt virus; test: Induced resistance of tobacco to tomato spotted wilt virus infection; assay type: in vivo; conditions: for Relative immune effect / Disease index: tobacco; for Content of virus protein: tobacco leaves, 3 days, Western blot, relative
# Protocol: Tomato spotted wilt virus was obtained from Yunnan Province, China. The initial virus source was stored in a refrigerator at −80° C. Nicotiana benthamiana leaves were inoculated with the virus by mechanical inoculation to activate the virus. Viral plasmids were extracted and transformed by competent cells of Escherichia coli. The competent cells were spread on a resistant plate and cultured. Single colonies were selected for PCR screening. Positive colonies were selected for sequencing and subsequent plasmid extraction. Plasmids with normal sequencing were added to competent cells of Agrobacterium, and the Agrobacterium was transformed by electroporation. A solution of the transformed Agrobacterium was spread on the correspondingly resistant screening plate, and cultured at 28° C. (±1) for 48 h. Single colonies of the Agrobacterium on the transformation plate were selected, placed in 5 mL of correspondingly resistant LB medium, and cultured overnight at 28° C. and 180 rpm. Bacterial cells were collected by 2 min of centrifugation at 6,000 rpm, and suspended with an Agrobacterium treatment buffer solution (10 mM MgCl2, 10 mM MES, 10 μM Acetosyringone) until the OD600 value of the suspension was 0.5, and the suspension was treated at 28° C. for 3 h in dark for use.
# 2-amino-3-methylhexanoic acid was dissolved in distilled water and then diluted with distilled water by gradient into solutions of 0 nM, 0.5 nM, 1 nM and 10 nM. Nicotiana benthamiana seeds were sowed in a small pot, and cultured at 22 (±1)° C., 16 h/8 h light for 5 weeks. Healthy tobacco plants (preferably with 8-10 leaves) were selected and treated with the 2-amino-3-methylhexanoic acid solutions of the above concentrations to conduct spray treatment on the stems and leaves. The treatment was repeated once after 24 h and conducted twice in total. After 24 h, the Agrobacterium solution with a uniform concentration was extracted using a 1 mL syringe, the injection port of the syringe was pressed directly on a small hole on the back of a tobacco leaf, and the bacterial solution was slowly pushed to soak the whole leaf. The soaked tobacco was moved to an environment of 22 (±1)° C. and cultured under 16 h/8 h light. 3 days later, microscopic observation was conducted. At the same time, samples were taken. The gray scale of protein bands was analyzed by Western blot combined with ImageJ software, and the relative protein content of the virus in the leaves was determined. The incidence of tobacco leaves was observed 15 days later, and the disease indexes were recorded according to the Grade and Investigation Method of Tobacco Diseases and Insect Pests (GB/T23222-2008) using a formula as follows: […]
# Grading standard of tomato spotted wilt virus infection (grading and investigation were conducted per plant): • Grade 0: The whole plant is disease free. • Grade 1: Heart leaves have clear veins or are slightly mottled, and the diseased plant is not obviously dwarfed. • Grade 3: One-third of leaves are mottled without deformation, or the diseased plant is dwarfed to three quarters or more of a normal plant in height. • Grade 5: One-third to one-half of leaves are mottled, or a few leaves are deformed, or the main veins become black, or the plant is dwarfed to two-thirds to three-quarters of a normal plant in height. • Grade 7: One-half to two-thirds of leaves are mottled or deformed, or a few main and lateral veins become necrotic, or the plant is dwarfed to one-half to two-thirds of a normal plant in height. • Grade 9: The leaves of the whole plant are mottled, seriously deformed or necrotic, or the diseased plant is dwarfed to […] of a normal plant in height.
# Aerobacter aerogenes = conditions: cited from earlier work
# [2] = each concentration in range 0.5-10 nM
smiles,measurement,setting,value
CCCC(C)C(N)C(=O)O (stereo not drawn) [2-amino-3-methylhexanoic acid],Inhibitory effect,Achromobacter butyri,slight inhibitory effect
same,Inhibitory effect,Pseudomonas aeruginosa,slight inhibitory effect
same,Dry weight of overground part,wheat; 10 nM,0.72 ± 0.04bc g
same,Fresh weight of overground part,wheat; 10 nM,1.76 ± 0.13c g
same,Heat injury index,wheat; 10 nM,85%
same,Dry weight of overground part,wheat; 100 nM,0.75 ± 0.04c g
same,Fresh weight of overground part,wheat; 100 nM,1.87 ± 0.12c g
same,Heat injury index,wheat; 100 nM,75%
same,Dry weight of overground part,"wheat; 1,000 nM",0.78 ± 0.05bc g
same,Fresh weight of overground part,"wheat; 1,000 nM",2.11 ± 0.30c g
same,Heat injury index,"wheat; 1,000 nM",65%
same,Decrease of heat injury index,"wheat; 10,000 nM",40%
same,Dry weight of aboveground part higher than untreated control group,"wheat; 10,000 nM",31.94%
same,Fresh weight of aboveground part higher than untreated control group,"wheat; 10,000 nM",102.84%
same,Dry weight of overground part,"wheat; 10,000 nM",0.95 ± 0.04ab g
same,Fresh weight of overground part,"wheat; 10,000 nM",3.57 ± 0.50b g
same,Heat injury index,"wheat; 10,000 nM",40%
same,Relative immune effect,[1]; 0.5 nM,59.06%
same,Relative immune effect,[1]; 1 nM,52.36%
same,Content of virus protein,[1]; 1 nM,0.33 ± 0.001c
same,Disease index,"[1]; 1 nM, 15 days after inoculation",44.81 ± 3.90c
same,Relative immune effect,[1]; 10 nM,22.05%
same,Content of virus protein,[1]; 10 nM,0.44 ± 0.007b
same,Disease index,"[1]; 10 nM, 15 days after inoculation",73.33 ± 2.22b
same,Disease index,[1]; [2],lower than 75
same,Relative immune effect,[1]; [2],≥ 20%
same,Inhibitory effect,Aerobacter aerogenes,no inhibitory effect
